Assay: Chemical treatment by UV (254 nm)/sulfite advanced reduction at pH 9.5
Format: physicochemical
Method: The chemical treatment of five non-biodegradable PFAS was conducted in 600 mL closed-system batch reactors equipped with a low-pressure mercury lamp (254 nm, 18 W) at 20° C. The reaction mixture contained 25 μM ether PFAS, 10 mM Na2SO3, and 5 mM NaHCO3 at pH 9.5 adjusted by NaOH. […]

Row | Compound | defluorination by chemical reductive degradation (UV 254 nm, SO3^2− 10 mM, pH 9.5, after 48 h) | degradation by UV/sulfite treatment (second advanced reduction treatment, result in words)
1 | O=C(O)C(F)(OC(F)(F)C(F)(F)C(F)(F)F)C(F)(F)F (centres unmarked) [E10, 2,3,3,3-tetrafluoro-2-(perfluoropropoxy)propanoic acid] | less than 50% | –
2 | Trifluoroacetic acid [TP112] | – | quickly and completely degraded
